Assay results published in patent publication US4663323A, “Tetrazole derivatives, anti-ulcer composition containing the same and method for treating ulcers” (Otsuka Pharmaceutical Co., Ltd., priority 1984, dated 1987).
Where two headings read alike, the source gives them in different places.

Assays:
[1] = test system: gastric juice secretion; assay: Shay rat pylorus ligation method (gastric juice secretion-inhibiting activity); type: in vivo, male Wistar rats; conditions: sc, 4 h, 100 mg/kg s.c., 30 min before pylorus ligation, measured 4 hours after ligation
Protocol: The pharmacological activities of the compouns (I) were tested by a Shay rat pylorus ligation method (cf. H. Shay et al: Gastroenterol., Vol. 5, page 43, 1945) which is the most popular method for testing of gastric juice secretion-inhibiting activity. The test was carried out by using male Wistar rats, weighing about 170 g and fasting for 24 hours.
Test compounds were administered 30 minutes before the pylorus ligation in a dose of 100 mg/kg in subcutaneous route, and the volume, total acidity and/or pepsin activity of the gastric juice were measured 4 hours after the ligation. As a control, a saline solution was administered instead of the test compound. The inhibitory ratio (%) of the test compounds were calculated when the inhibitory activities of the control were counted as zero (0).
(§1) In the table, the inhibitory ratio (%) was evaluated as follows: […]

[2] = test system: Stress Ulcer; assay: Stress Ulcer; type: in vivo, male Wistar rats; conditions: oral, 1×10^-3 mole in 0.5% CMC, before restraint and water dipping at 23° C. for 7 hours
Protocol: After male Wistar rats weighing about 170 g was fasted for 24 hours, the rats were restrained in a stress cage and dipped in water bath at 23° C. till chest of the animals. After 7 hours, the rats were killed and the stomach was isolated. Into the isolated stomach 10% formalin (8 ml) was poured and settled. The stomach was cut open at the greater curvature, and the length of each ulcer on the membrane was measured. Sum of the length of all ulcers was shown as ulcer index (UI). The test compound was orally administered to the rats before restraint in a stress cage in the form of 0.5% CMC suspension in a concentration of 1×10^-3 mole. As a control, only the solvent (CMC solution) was administered likewise.
The inhibitory ratio (%) of stress ulcer of the test compounds was calculated by the following equation: [formula]
as §1

[3] = Acute Toxicity; conditions: rat, in vivo, po, male Wistar rats
Protocol: The test compounds were orally administered to male Wistar rats, and the half lethal dose (LD50) was measured.

[4] = test system: Acetic Acid-Induced Ulcer; assay: Acetic Acid-Induced Ulcer; type: in vivo, Male Wistar rats; conditions: oral, twice a day for 12 days
Protocol: Male Wistar rats were used. Under anestherization, the abdomen of rats were opened to expose stomach, and then 30% aqueous acetic acid (0.015 ml) was injected below serous membrane which was located at boundary area of true gastric gland and pyloric glands and thereafter the abdomen was closed, by which an experimental ulcer was induced.
The test compound was orally administered in the dose as shown in Table 3 in the form of 0.5% CMC suspension or solution twice a day for 12 days after the acetic acid-induced ulcer was produced. As a control, only the solvent (CMC solution) was administered likewise.
After the reproduced mucous membrane was removed around the ulcers, the open area of ulcers was measured with a micrometer, and the sum of ulcer area was shown as ulcer index (UI). The inhibitory ratio (%) of acetic acid-induced ulcer of the test compounds was calculated in the same manner as in Pharmacological Test 2.
as §1

[5] = test system: Indomethacin-Induced Ulcer; assay: Indomethacin-Induced Ulcer; type: in vivo, male Wistar rats; conditions: oral, 3×10^-4 mole in 0.5% CMC, 30 min before indomethacin 20 mg/kg s.c.
Protocol: After male Wistar rats weighing about 160 g was fasted for 24 hours, indomethacin was subcutaneously administered to the rats in a dose of 20 mg/kg in the form of a suspension in a mixture of 0.5% CMC and a small amount of Tween 80 (i.e. polyoxyethylene sorbitan monooleate). After 5 hours, the rats were killed and the stomach was isolated. Into the isolated stomach 10% formalin (8 ml) was poured and settled. The stomach was cut open at the greater curvature, and the length of each ulcer on the membrane was measured, based on which results the inhibitory ratio of the indomethacin-induced ulcer of the test compounds was calculated in the same manner as in Pharmacological Test 2. The test compound was orally administered to the rats in a concentration of 3×10^-4 mole in the form of 0.5% CMC suspension 30 minutes before the administration of indomethacin.
as §1

[6] = saline control = 0, read-out: Inhibitory ratio, Pepsin activity
[7] = saline control = 0, read-out: Inhibitory ratio, Total acidity
[8] = saline control = 0, read-out: Inhibitory ratio, Volume of gastric juice

Compound	inhibition in vivo at 100 mg/kg [1, 6]	inhibition in vivo at 100 mg/kg [1, 7]	inhibition in vivo at 100 mg/kg [1, 8]	Inhibitory ratio of stress ulcer [2]	LD50 [3]	Inhibitory ratio of acetic acid-induced ulcer ([4]; 20 mg/kg.day)	Inhibitory ratio of acetic acid-induced ulcer ([4]; 3 × 10^-5 mole/kg.day)	Inhibitory ratio of indomethacin-induced ulcer [5]
CCN(CC)C(=O)CCCSc1nnnn1C [Compound 1, N,N-Diethyl-4-(1-methyl-1,2,3,4-tetrazol-5-yl)thio-butyramide]	> 50%	> 50%	> 50%	++ (more than 60%)	> 500 mg/kg	–	–	–
CCN(C(=O)CCCSc1nnnn1C)C1CCCCC1 [Compound 2, N-Ethyl-N-cyclohexyl-4-(1-methyl-1,2,3,4-tetrazol-5-yl)thio-butyramide]	> 50%	> 50%	> 50%	–	> 500 mg/kg	+ (30 to less than 60%)	–	–
CCN(C(=O)CCCCc1nnnn1-c1ccccc1)C1CCCCC1 [Compound 4, N-Ethyl-N-cyclohexyl-5-(1-phenyl-1,2,3,4-tetrazol-5-yl)valeramide]	10 to 50%	10 to 50%	10 to 50%	++ (more than 60%)	> 500 mg/kg	–	–	–
CN(C)c1ccc(NC(=O)CCCSc2nnnn2C)cc1 [Compound 7, N-[4-(N,N-dimethylamino)phenyl]-4-(1-methyl-1,2,3,4-tetrazol-5-yl)thio-butyramide]	10 to 50%	10 to 50%	> 50%	++ (more than 60%)	> 500 mg/kg	–	–	–
CCN(C(=O)CCCSc1nnnn1C)c1ccccc1 [Compound 9, N-Ethyl-N-phenyl-4-(1-methyl-1,2,3,4-tetrazol-5-yl)thio-butyramide]	–	–	–	–	> 500 mg/kg	+ (30 to less than 60%)	–	–
CCN(C(=O)CCCSc1nnnn1C)c1ccccn1 [Compound 10, N-Ethyl-N-(2-pyridyl)-4-(1-methyl-1,2,3,4-tetrazol-5-yl)thio-butyramide]	–	10 to 50%	–	–	> 500 mg/kg	–	–	–
COc1ccc(CCN(C(=O)CCCSc2nnnn2C)C2CCCCC2)cc1OC [Compound 11, N-Cyclohexyl-N-[2-(3,4,-dimethoxyphenyl)-ethyl]-4-(1-methyl-1,2,3,4-tetrazol-5-yl)thio-butyramide]	10 to 50%	10 to 50%	10 to 50%	–	> 500 mg/kg	–	–	–
CCc1ccc(-n2nnnc2CSCCC(=O)N(CC)CC)cc1 [Compound 12, N,N-Diethyl-3-[1-(4-ethylphenyl)-1,2,3,4-tetrazol-5-yl]methylthio-propionamide]	10 to 50%	10 to 50%	10 to 50%	–	> 500 mg/kg	–	–	–
Cn1nnnc1SCCCC(=O)NCc1ccco1 [Compound 13, N-Furfuryl-4-(1-methyl-1,2,3,4-tetrazol-5-yl)thio-butyramide]	10 to 50%	10 to 50%	10 to 50%	–	> 500 mg/kg	–	–	–
CCNC(=O)CCSCc1nnnn1-c1ccccc1 [Compound 16, N-Ethyl-3-(1-phenyl-1,2,3,4-tetrazol-5-yl)-methylthio-propionamide]	–	–	–	+ (30 to less than 60%)	> 500 mg/kg	–	–	–
CCNC(=O)CCCSCc1nnnn1CC [Compound 17, N-Ethyl-4-(1-ethyl-1,2,3,4-tetrazol-5-yl)-methylthio-butyramide]	–	–	–	+ (30 to less than 60%)	> 500 mg/kg	–	–	–
CCn1nnnc1CSCCC(N)=O [Compound 19, 3-(1-Ethyl-1,2,3,4-tetrazol-5-yl)methylthio-propionamide]	–	–	–	–	> 500 mg/kg	–	+ (30 to less than 60%)	–
COc1ccc(CCNC(=O)CCCSc2nnnn2C)cc1OC [Compound 26, N-[2-(3,4-Dimethoxyphenyl)ethyl]-4-(1-methyl-1,2,3,4-tetrazol-5-yl)thio-butyramide]	< 10%	10 to 50%	> 50%	–	–	+ (30 to less than 60%)	–	–
CN(C)C(=O)CCCSc1nnnn1C [Compound 28, N,N-Dimethyl-4-(1-methyl-1,2,3,4-tetrazol-5-yl)thio-butyramide]	10 to 50%	> 50%	> 50%	–	–	+ (30 to less than 60%)	–	–
COC(=O)CCCSc1nnnn1C [Compound 37, Methyl 4-(1-methyl-1,2,3,4-tetrazol-5-yl)-thio-butyrate]	–	–	10 to 50%	–	–	+ (30 to less than 60%)	–	–
CN(Cc1cccs1)C(=O)CCCSc1nnnn1C [Compound 39, N-Methyl-N-(2-thienylmethyl)-4-(1-methyl-1,2,3,4-tetrazol-5-yl)thio-butyramide]	–	–	> 50%	–	–	–	–	+ (30 to less than 60%)
COC1CCC(NC(=O)CCCSc2nnnn2C)CC1 (centres unmarked) [Compound 45, N-(4-Methoxycyclohexyl)-4-(1-methyl-1,2,3,4-tetrazol-5-yl)thio-butyramide]	–	–	10 to 50%	–	–	–	–	++ (more than 60%)
CCN(C(=O)CCCc1nnnn1-c1ccccc1)C1CCCCC1 [Compound 46, N-Ethyl-N-cyclohexyl-4-(1-phenyl-1,2,3,4-tetrazol-5-yl)butyramide]	< 10%	10 to 50%	10 to 50%	++ (more than 60%)	–	–	–	++ (more than 60%)
CCCCNC(=O)CCCCc1nnnn1-c1ccccc1 [Compound 47, N-(n-Butyl)-5-(1-phenyl-1,2,3,4-tetrazol-5-yl)valeramide]	–	–	–	+ (30 to less than 60%)	–	–	–	+ (30 to less than 60%)
COc1ccc(NC(=O)CCCCc2nnnn2-c2ccccc2)cc1 [Compound 49, N-(4-Methoxyphenyl)-5-(1-phenyl-1,2,3,4-tetrazol-5-yl)valeramide]	–	–	–	+ (30 to less than 60%)	–	–	–	+ (30 to less than 60%)
CCCCN(C(=O)CCCSc1nnnn1C)C1CCCCC1 [Compound 55, N-Cyclohexyl-N-butyl-5-(1-methyl-1,2,3,4-tetrazol-5-yl)thio-butyramide]	–	–	–	–	–	+ (30 to less than 60%)	–	–
N,N-Dicyclohexyl-5-(1-methyl-1,2,3,4-tetrazol-5-yl)thio-butyramide [Compound 58]	–	–	–	–	–	+ (30 to less than 60%)	–	–
N-Ethyl-N-cyclooctyl-5-(1-methyl-1,2,3,4-tetrazol-5-yl)thio-butyramide [Compound 56]	–	–	–	–	–	+ (30 to less than 60%)	–	–
